Test results: US20190127359A1, “Compounds & Methods for the Enhanced Degradation of Targeted Proteins & Other Polypeptides by an E3 Ubiquitin Ligase” (YALE UNIVERSITY, priority 2012, published 2019)
Like-named read-outs stand apart in the source and are kept apart here.

Molecular target: VHL (Homo sapiens, UniProt P40337)
Assay: Fluorescence polarization competition assay (HIF-1α peptide FP displacement)

| Structure (SMILES) | IC50 (IC50 (μM) 1% DMSO, 1% DMSO) | IC50 (IC50 (μM) 10% DMSO, 10% DMSO) | also measured |
| --- | --- | --- | --- |
| Cc1cc(CC(=O)N2C[C@H](O)C[C@H]2C(=O)NCc2ccc(-c3cccn3C)cc2)on1 [VL119] | 33 µM | 17.8 µM | – |
| Nc1ccccc1C(=O)N1C[C@H](O)C[C@H]1C(=O)NCc1ccc(Cl)cc1 [VL070] | – | 38.2 µM | – |
| N#Cc1cc(Br)cc(C(=O)N2C[C@H](O)C[C@H]2C(=O)NCc2ccc(Cl)cc2)c1 [VL059] | – | 205 µM | – |
| Nc1ccc(C(=O)N2C[C@H](O)C[C@H]2C(=O)NCc2ccc(Cl)cc2)cc1 [VL072] | – | 29.5 µM | – |
| CCCNC(=O)OC[C@@H](NC(=O)[C@@H]1C[C@@H](O)CN1C(=O)Cc1cc(C)no1)c1ccc(Cl)cc1 [VL163] | 610 µM | 508 µM | – |
| NC(=O)CCC(=O)N1C[C@H](O)C[C@H]1C(=O)NCc1ccc(Cl)cc1 [VL050] | – | 332 µM | – |
| Cc1ccc(S(=O)(=O)N2C[C@H](O)C[C@H]2C(=O)NCc2cccc(Cl)c2)cc1 [VL008] | – | > 1000 µM | – |
| Cc1cc(CC(=O)N2C[C@H](O)C[C@H]2C(=O)NCc2ccccc2)on1 [VL034] | – | – | IC50 (read-out: IC50 (μM) 1% DMSO, 1% DMSO): 130 µM |
| Cc1cc(CC(=O)N2C[C@H](O)C[C@H]2C(=O)NCc2cccc(Cl)c2)on1 [Compound 1] | – | – | IC50 (Table 1A, binding of initial ligands to VHL, average of three independent trials, each in triplicate): 117 µM; displacement of the fluorescent HIF-1α peptide (fluorescence polarization, result in words): able to displace the fluorescent peptide albeit at high concentrations |
| Cc1cc(CC(=O)N2C[C@H](O)C[C@H]2C(=O)NCc2ccc(-c3ccc(F)nc3)cc2)on1 [VL151] | 33 µM | 11 µM | – |
| Cc1cc(CC(=O)N2C[C@H](O)C[C@H]2C(=O)NCc2ccc(C(F)(F)F)cc2)on1 [VL046] | – | 215 µM | – |
| Cc1cc(CC(=O)N2C[C@H](O)C[C@H]2C(=O)NCc2ccc(-c3ncon3)cc2)on1 [VL131] | 19 µM | 8 µM | – |
| O=C(NCc1ccc(Cl)cc1)[C@@H]1C[C@@H](O)CN1C(=O)c1cccc(O)c1 [VL080] | – | 17 µM | – |
| CS(=O)(=O)N1C[C@H](O)C[C@H]1C(=O)NCCc1ccc(O)cc1 [VL006] | – | – | IC50 (μM) 10% DMSO (10% DMSO): Inactive |
| O=C(NCc1ccc(Cl)cc1)[C@@H]1C[C@@H](O)CN1C(=O)c1cccc2[nH]cnc12 [VL125] | 568 µM | 790 µM | – |
| O=C(NCc1ccc(Cl)cc1)[C@@H]1C[C@@H](O)CN1C(=O)c1ccccc1-c1cnco1 [VL121] | > 1000 µM | > 1000 µM | – |
| O=C(NCc1ccc(Cl)cc1)[C@@H]1C[C@@H](O)CN1C(=O)c1ccc([N+](=O)[O-])cc1 [VL067] | – | 70.7 µM | – |
| Cc1cc(CC(=O)N2C[C@H](O)C[C@H]2C(=O)NCc2cccc(C(F)(F)F)c2)on1 [VL022] | – | ~870 µM | – |
| Cc1cc(CC(=O)N2C[C@H](O)C[C@H]2C(=O)N(C)Cc2ccc(Cl)cc2)on1 [VL147] | > 1000 µM | > 1000 µM | – |
| COc1ccc(CNC(=O)[C@@H]2C[C@@H](O)CN2C(=O)Cc2cc(C)no2)cc1OC [VL025] | – | 517 µM | – |
| Cc1cc(CC(=O)N2C[C@H](O)C[C@H]2C(=O)NCc2ccc3c(c2)OCO3)on1 [VL017] | – | ~510 µM | – |
| Cc1cc(CC(=O)N2C[C@H](O)C[C@H]2C(=O)NCc2cccc(-c3scnc3C)c2)on1 [VL115] | 19 µM | 17 µM | – |
| Cc1cc(CC(=O)N2C[C@H](O)C[C@H]2C(=O)NCc2ccc(F)cc2)on1 [VL020] | – | 295 µM | – |
| Cc1cc(CC(=O)N2C[C@H](O)C[C@H]2C(=O)NCc2ccc(Cl)cc2Cl)on1 [VL085] | – | 27.1 µM | – |
| Cc1cc(CC(=O)N2C[C@H](O)C[C@H]2C(=O)Nc2ccc(Br)cc2F)on1 [VL011] | – | > 1000 µM | – |
| O=C(NCc1cccc(Cl)c1)[C@@H]1C[C@@H](O)CN1S(=O)(=O)c1cccc([N+](=O)[O-])c1 [VL013] | – | 240 µM | – |
| Cc1cc(CC(=O)N2C[C@H](O)C[C@H]2C(=O)NCc2cccc3cccnc23)on1 [VL094] | – | 540 µM | – |
| O=C(NCc1ccc(Cl)cc1)[C@@H]1C[C@@H](O)CN1C(=O)c1ccc([N+](=O)[O-])c(O)c1 [VL084] | – | 460 µM | – |
| O=C(NCc1ccc(Cl)cc1)[C@@H]1C[C@@H](O)CN1C(=O)Cc1ccncc1 [VL062] | – | > 1000 µM | – |
| O=C(NCc1ccc(Cl)cc1)[C@@H]1C[C@@H](O)CN1S(=O)(=O)c1cccc2cccnc12 [VL130] | > 1000 µM | > 1000 µM | – |
